This is an account of results in patent US5162366A, “Antioxidant composition in vivo comprising enol form δ-lactone of diketogulonic acid” (Nissan Chemical Industries, Ltd., priority 1990, dated 1992).

“Also recorded” adds a separate entry of the source.

For series [1] the following is noted: intraperitoneal administration to female ddY mice in this test; cited from earlier work.
Another series concerns liver. The experiment in a line: Reducing liver toxicity by organic halogen compounds (CCl4 :CHCl3). Type of series: in vivo, mouse (female ddY strain). As to conditions: for TBA value (lipid peroxide) in liver: Day 1 after CCl4 :CHCl3, FIG. 4a; for calcium content in liver: over 3 days after CCl4 :CHCl3, FIG. 4b. On the procedure: In liquid paraffin were dissolved 0.0025 ml of carbon tetrachloride (CCl4) and 0.0050 ml of chloroform (CHCl3) to form 0.1 ml of a solution. The solution was intraperitoneally administered to female ddY strain mice of 4 week age having a mean body weight of 25 g. With passage of day, concentration of lipid peroxide (TBA value, by thiobarbituric acid reaction), calcium concentration and a ratio of saturated fatty acids to unsaturated fatty acids (as an index of fatty liver), in liver were measured over 3 days. […] Ascorbic acid (AsA) and R-345 (4 mg each was dissolved in 0.1 ml of physiological saline, respectively) were intraperitoneally administered once a day every day from 6 hours after CCl4 :CHCl3 was administered to the day before the mice were sacrificed.

Series [2] relates to ddY strain mice. As to the kind of experiment: Recovery from hyperglycemia in Alloxan-induced diabetes. The class given is in vivo, mouse (female ddY strain). The note with it: one week after Alloxan 80 mg/kg i.v.; FIG. 5. On the procedure: After Alloxan (80 mg/kg) was intravenously administered to female ddY strain mice of 4 week age showing a mean body weight of 25 g, 0.2 ml of vitamin E solution (dissolved in liquid paraffin in a concentration of 5%) was intramuscularly injected per mouse once a day from the next day and 0.2 ml of R-345 (dissolved in physiological saline in a concentration of 2 wt %) was intraperitoneally injected. In the control group, 0.2 ml of physiological saline was intraperitoneally injected per mouse. Blood sugar level was measured one week after administration of Alloxan.

A further series has as its system erythrocyte membrane. The experiment in a line: Inhibition of tert-butyl hydroperoxide-induced peroxidation of erythrocyte membrane (thiobarbituric acid). The note with it: for amount of lipid peroxide / formation of peroxide: human red ghost, tert-butyl hydroperoxide, 37° C., 30 minutes, 535 nm (FIG. 1). Type of series: biochemical, human. From the text: Human blood cells were subjected to hemolysis and red ghost (membrane segments containing hemoglobin) was collected by a centrifuging machine. […] The reaction product was quantitatively determined by colorimetry at 535 nm.

Series [3] has as its system ddY strain mice. As to the kind of experiment: Reducing toxicity of Adriamycin: survival days of mice. The class given is in vivo, mouse (female ddY strain). As to conditions: after Adriamycin; for prolongation of survival days: conclusion; for incidence of death versus control group: vitamin E 200 mg/kg i.p. 4 times or R-345 30 mg/kg i.p. 4 times.
Series [4] in a line: Oxidation of the reducing agent by tert-butyl hydroperoxide (absorption intensity). The class given is physicochemical. As to conditions: addition of tert-butyl hydroperoxide.
The next series is described as follows: Stability in water. Type of series: physicochemical.
In series [5] the test system is ddY strain mice. As to the kind of experiment: Reducing radiation injury (X rays 800 roentgen): survival days of mice. Type of series: in vivo, mouse (female ddY strain). As to conditions: for mice survived longer than 30 days / mice survived on Day 15 / average number of survival days: X rays 800 roentgen, FIG. 3; for mice survived longer than 30 days: 20 mice, R-345 285 mg/kg i.v. and/or vitamin E 200 mg/kg i.m.; for mice survived on Day 15: R-345 285 mg/kg i.v. 3 times and/or vitamin E 200 mg/kg i.m. 3 times; for average number of survival days: survival longer than 30 days counted as 30 days, control 8.7 days. On the procedure: Female ddY strain mice of 4 week age having a mean body weight of 25 g were exposed to X rays of 800 roentgen to examine the number of survival days (dose of LD50 for 30 days was 407 to 466 roentgen).
R-345 (285 mg/kg) was intravenously administered through the tail immediately before exposure to radiation, and on Days 1 and 3 (3 times in total). […] With respect to a mouse survived longer than 30 days, the number of survival days was counted as 30 days to determine the average number of survival days.
Vitamin E (200 mg/kg) was intramuscularly administered 3 days and 1 day before exposure to radiation, and immediately before the exposure (3 times in total).

On to `COc1cccc2c1C(=O)c1c(O)c3c(c(O)c1C2=O)C[C@@](O)(C(=O)CO)C[C@@H]3O[C@H]1C[C@H](N)[C@H](O)[C@H](C)O1` [Adriamycin], for which, in series [1], the LD50 is reported as 14 mg/kg.

In the case of `O=C1OC(CO)C(=O)C(O)=C1O` (centres unmarked) [R-345, 2,3,6-trihydroxy-4-oxo-2-hexen-5-olide], in the series with liver, the “TBA value (lipid peroxide) in liver” value was “almost the same as in the control group” and the “calcium content in liver” value is given as “almost recovered to normal level”. In addition, the “increase in TBA value, calcium content and increase in neutral fat versus control group or vitamin E alone” value in the series on liver (conclusion) was “reduced as compared to the control group or the group administered with vitamin E alone”. Moreover, the blood sugar level entry in the series on ddY strain mice [2] is recorded as “somewhat higher than normal level”. In the series on erythrocyte membrane (conclusion), the “activity of alleviating erythrocyte membrane disturbance induced by a peroxidant, versus ascorbic acid” value is given as “more effective than ascorbic acid”. Besides, the “amount of lipid peroxide / formation of peroxide” value with erythrocyte membrane is given as “exhibited the activity of inhibiting the formation of peroxide”. In addition, in the series on ddY strain mice [3] (i.p., 10 mice, R-345 30 mg/kg and/or vitamin E 200 mg/kg, FIG. 2), the “mice survived longer than 50 days” value was determined as 2 mice. Moreover, in the series with ddY strain mice [3] (R-345 30 mg/kg i.p. 4 times, FIG. 2b), the “mice died up to about Day 20” value is listed as 8 out of 10. In addition, in the series on ddY strain mice [3], the “prolongation of survival days” value is reported as “only a slight prolongation” and the “incidence of death versus control group” value is “a slight difference was observed”. In addition, in series [4], the “oxidation by tert-butyl hydroperoxide” value is recorded as “hardly oxidized” and the “reduction in absorption intensity at 345 nm” value is “slight”. Moreover, in “Stability in water”, the “decomposition in water over a long period of time” value is “tends to be decomposed some or less”. Further, in the series on ddY strain mice [5] (R-345 285 mg/kg i.v. 3 times), the “increase in average number of survival days compared with the control group” value was “slight increase”. For the same molecule, in the series with ddY strain mice [5], the “mice survived longer than 30 days” value is 2 mice, the “mice survived on Day 15” value is recorded as 3 out of 20 and the “average number of survival days” value is listed as 12.9 days.

Take `O=C1O[C@H]([C@@H](O)CO)C(O)=C1O` [ascorbic acid]: in the series with liver, the “TBA value (lipid peroxide) in liver” value is “particularly high TBA value was noted in some cases” and the “calcium content in liver” value is reported as “not lowered to normal level”. Also, the “TBA value (lipid peroxide) in liver” value in the series on liver (listed as AsA) is on record as “some were higher than in the group administered with physiological saline (control group)”. Also, the “amount of lipid peroxide / formation of peroxide” value with erythrocyte membrane is on record as “increased”. In addition, in series [4], the “oxidation by tert-butyl hydroperoxide” value is given as “immediately oxidized” and the “reduction in absorption intensity at 265 nm” value is given as “markedly reduced”.

Consider vitamin E, for which, in the series with liver (CCl4 :CHCl3), the “prevention of increase in TBA value (lipid peroxide level)” value is on record as “effect of preventing increase in TBA value (lipid peroxide level) was noted” and the “prevention of increase of calcium level” value was “not noted”. In addition, in the series on liver (CCl4 :CHCl3, listed as VE), the “prevention of increase in TBA value (lipid peroxide level)” value is listed as “effective for preventing the increase in TBA value; also recorded: prevented an increase in TBA value”. Also, the “recovery of ratio of saturated fatty acid to unsaturated fatty acid in liver” value with liver (Day 2 after CCl4 :CHCl3, FIG. 4c) is listed as “recovery would be slower than in the group administered with no VE”. In addition, the “recovery to normal level of calcium content on Day 3” value with liver (Day 3 after CCl4 :CHCl3, conclusion) is “a tendency to delay the recovery to normal level”. Moreover, the “calcium content in liver” value with liver was “not lowered to normal level”. In the series with ddY strain mice [2], the blood sugar level result is reported as “somewhat higher than normal level”. Further, the “amount of lipid peroxide / formation of peroxide” value with erythrocyte membrane was “exhibited the activity of inhibiting the formation of peroxide”. In the series on ddY strain mice [3], the “prolongation of survival days” value is given as “only a slight prolongation” and the “incidence of death versus control group” value is given as “almost the same incidence as noted with the control group”. Also, the “mice survived longer than 31 days” value in the series on ddY strain mice [3] (vitamin E 200 mg/kg i.p. 4 times, FIG. 2c) is on record as “None”. Further, in the series on ddY strain mice [5], the “mice survived longer than 30 days” value turned out to be 2 mice, the “mice survived on Day 15” value is 2 out of 20 and the “average number of survival days” value is 11.8 days.
